Laboratory results from patent publication US7601717B2, “Pterin analogs” (BioMarin Pharmaceutical Inc., priority 2008, dated 2009).
Counter-ions that a name gives are not always drawn.

Legend:
eNOS = eNOS (Homo sapiens, UniProt P29474); assay: Cell-free eNOS activity assay reconstituted from purified components; type: biochemical; details: 1, 10, 100 μM, 90 minutes at 37° C., nitrite by DAN fluorescence
Description: Also tested was the effect of BH4 analogs compared to free BH4 on stimulation of eNOS activity in a cell-free assay system reconstituted from purified components. 90 μL of reaction mixture (25 mM Tris-HCL, pH7.4, 1 μM FAD, 1 μM FMN, 100 μM L-Arginine, 2.5 mM CaCl2, 1 mM NADPH, 0.04 mg/ml Calmodulin) was mixed with 5 μl of eNOS (15 units/ml) and 5 μl of BH4 or BH4 analogs (1, 10, 100 μM), followed by incubation in a 37° C. water bath for 90 minutes. Then 100 μl of water and 20 μl of the nitrite fluorescent probe DAN (2,3-diaminonaphthalene, 316 μM) were added to each reaction and incubated at room temperature for 10 minutes. The dye DAN reacts with nitrite to yield the fluorescent product naphthotriazole. The reaction was then stopped by adding 10 μl of NaOH (2.8 M), and the fluorescence of the samples was read using excitation frequency 375 nm and emission frequency 415 nm.

[1] = tested on: human umbilical vein endothelial cells (HUVEC); assay: Nitric oxide production (nitrite+nitrate) in NAS-treated HUVEC; type: cell-based; details: for NO production (nitrite+nitrate): 5-22 hours treatment; for effect (response) relative to that of free BH4: 5 to 22 hours exposure
Description: Cultured human umbilical vein endothelial cells (HUVEC) were pretreated with 3 mM N-acetylserotonin (NAS), an inhibitor of the enzyme sepiapterin reductase. Inhibition of this pathway typically results in loss of endogenous BH4, depressing the endogenous eNOS activity far below normal and provides an assay to test for restoration of eNOS activity.
Thus, subconfluent HUVECs were seeded in a 24-well plate and grown overnight in EGM2 medium (full growth medium). The next morning, fresh medium was added to the cells (300 μL/well), 3 mM N-acetylserotonin (NAS), an inhibitor of the enzyme sepiapterin reductase (a member of the synthesis pathway for endogenous BH4) was added to the cells to decrease the endogenous BH4 levels. After an incubation of 1.5 hours, 50, 100, or […] BH4 or compound of Example 5, Example 6, Example 7, or Example 9 were added to the cells. The cells were allowed to react with the BH4 or the compound of Example 5, Example 7, or Example 9 for 5-22 hours. The production of NO was then measured as changes in total (nitrite+nitrate) by the Griess reaction subsequent to nitrate reductase treatment. 90 μL of reaction mixture (25 mM Tris-HCL, pH7.4, 1 μM FAD, 1 μM FMN, 100 μM L-Arginin 2.5 mM CaCl2, 1 mM NADPH, 0.04 mg/ml Calmodulin) was mixed with 5 μl of eNOS (15 units/ml) and 5 μl of BH4 or BH4 analogs (1, 10, 100 μM), followed by incubation in a 37° C. water bath for 90 minutes. Then 100 μl of water and 20 μl of the nitrite fluorescent probe DAN (2,3-diaminonaphthalene, 316 μM) were added to each reaction and incubated at room temperature for 10 minutes. The dye DAN reacts with nitrite to yield the fluorescent product naphthotriazole. The reaction was then stopped by adding 10 μl of NaOH (2.8 M), and the fluorescence of the samples was read using excitation frequency 375 nm and emission frequency 415 nm. The percentage of nitrite+nitrate with BH4 or compound of Example 5, Example 7, or Example 9 is shown in FIG. 17 (after 5 hours); FIG. 18 (after 17 hours); and FIG. 19 (after 22 hours). The results for Example 6 are shown in FIG. 20 (after 5 hours) and FIG. 21 (after 20 hours).

[2] = Stability in simulated gastric fluid; type: in vitro ADME; details: over a 60 minute period, compound remaining
Description: (§1) The stability of various compounds as disclosed herein was tested in human and rat and in simulated gastric fluid. Each compound was tested over an hour period for concentration of the compound remaining at each time point. The results are shown in FIGS. 3 (human plasma stability), 4 (rat plasma stability), and 5 (simulated gastric fluid stability) for the compounds of Example 2, 3, 4, and 20.

Stability in rat plasma = type: in vitro ADME; details: over a 60 minute period, compound remaining
Description: as §1

[3] = Stability in human plasma; type: in vitro ADME; details: over a 60 minute period, compound remaining
Description: as §1

[4] = Pharmacokinetics and bioavailability, single intravenous or oral doses, partial Latin square crossover; type: in vivo, male cynomolgus monkeys; details: male, cynomolgus monkey, plasma; intravenous; title 5 mg/kg, text 2 mg/kg; n=6
[5] = tested on: Spontaneously Hypertensive rats (SHR); assay: Anti-hypertensive effect, tail-cuff systolic blood pressure in SHR; type: in vivo, rat
Description: This study was to determine if the BH4 analogs have a similar hypotensive effect and to determine the steady state pharmacokinetics (PK) profiles of plasma BH4 concentrations.
Male Wistar-Kyoto (WKY) rats and SHR rats (Elevage Janvier, France, 7 weeks old) were housed seven days prior to the beginning of experiments with free access to standard chow and water and maintained on an inversed 12 h dark/light cycle (10:00/22:00). After a one week acclimation period, the animals were trained to the tail-cuff system during one week (3 sessions). The following week, two baseline measurements of blood pressure were performed.
The rats (10 weeks old) then received respective treatments of water, vehicle, 2, 10, or 30 mg/kg/day of BH4 analog (Example 5, Val-BH4) or 100 mg/kg/day BH4 by oral gavage (8 mL/kg, dissolved in 100 μM ascorbic acid) performed once a day during 21 days of treatment. The doses of BH4 analog were prepared as mg/kg equivalents of BH4 (calculated using BH4 and BH4 analog 2HCl molecular weights). Body weight was monitored 3 times per week and the most recent body weight was used to adjust drug and vehicle daily intake. Seven experimental groups of rats were evaluated: Group 1—normotensive WKY rats and water gavage; Group 2—hypertensive SHR rats and water gavage; Group 3—hypertensive SHR rats and vehicle gavage; Group 4—hypertensive SHR rats and BH4 100 mg/kg/day gavage; Group 5—hypertensive SHR rats and BH4 analog 2 mg/kg/day gavage; Group 6—hypertensive SHR rats and BH4 analog 10 mg/kg/day gavage; Group 7—hypertensive SHR rats and 30 mg/kg/day BH4 analog gavage. To account for animal loss or animal disqualification during experimental handling, 10 rats were used in each group, with the expectation to obtain interpretable results for at least 8. Systolic blood pressure (SBP) and heart rate (HR) were measured twice weekly during the 3-week treatment period.
Systolic blood pressure (SBP) and heart rate (HR) were measured using the tail-cuff method, twice before the beginning of the treatment and twice weekly during the 3 week treatment period (6 measurements during the treatment period). Rats were placed in a plastic restraint and warmed to […]. A pneumatic pulse sensor was attached to the tail. After cuff inflation, SBP was measured and HR was determined by counting pulse numbers per minute. Data for each rat was taken an average of at least 4 stable readings. At least 10 cuff inflations were performed for each BP measurement.

[6] = Pharmacokinetics and bioavailability, single intravenous or oral doses, partial Latin square crossover; type: in vivo, male cynomolgus monkeys; details: oral 40 mg/kg, n=6
Description: This study was to determine the pharmacokinetics and relative bioavailability of BH4 when given as parent BH4 or an analog of BH4 to male cynomolgus monkeys as single intravenous or oral doses in a partial Latin square crossover design.
Six, male, non-naïve cynomolgus monkeys were fasted overnight prior to dosing through approximately 4 hours postdose. Individual doses were calculated based on body weights recorded on each day of dose administration. Five experimental groups of monkeys were evaluated using a partial Latin square crossover design: Group 1-2 mg/kg BH4 by IV; Group 2-40 mg/kg BH4 by oral gavage; Group 3-2 mg/kg BH4 analog by IV; Group 4-5 mg/kg BH4 analog by oral gavage; Group 5-20 mg/kg BH4 analog by oral gavage. The doses of BH4 analog were prepared as mg/kg equivalents of BH4 (calculated using BH4 and BH4 analog 2HCl molecular weights). The partial Latin square crossover design was used to minimize dose sequence effect on interanimal variability for statistical purposes. The monkeys received their respective dose of BH4 intravenously (2 mL/kg, dissolved in 100 μM ascorbic acid and 5% mannitol in sterile water for injection, SWFI), Example 5 intravenously (2 mL/kg, dissolved in 100 μM ascorbic acid and 5% mannitol in citrate buffer, pH 3) or BH4 or Example 5 by oral gavage (4 mL/kg, dissolved in 100 μM ascorbic acid in SWFI). Prior to use, all intravenous dose formulations were filtered into the final dosing container using a 0.22-micron syringe filter (Millex GS or GV; Millipore).
For intravenous administration, blood (approximately 1 mL) was collected from each animal predose and at 0.083, 0.25, 0.5, 1, 2, 3, 4, 6, 8, 12, 18, and 24 hours postdose. For oral administration, blood (approximately 1 mL) was collected from each animal predose and at 0.25, 0.5, 1, 2, 3, 4, 6, 8, 12, 18, and 24 hours postdose. Blood was collected into tubes containing K2-EDTA anticoagulant, which was maintained in chilled condition, and centrifuged to obtain plasma. Centrifugation began within 30 minutes of collection. Three, 100-μL aliquots of each plasma sample were promptly transferred following centrifugation into individual tubes containing 0.1% (w/v) dithioerythritol (DTE) for storage. Once the plasma aliquot was added, each tube was vortexed briefly to mix then immediately placed on dry ice.

[7] = male, cynomolgus monkey, plasma

| Compound | potentiation of eNOS activity (eNOS) | NO production (nitrite+nitrate) [1] | effect (response) relative to that of free BH4 [1] | stability in simulated gastric fluid [2] | stability in rat plasma (Stability in rat plasma) | stability in human plasma [3] | also measured |
| --- | --- | --- | --- | --- | --- | --- | --- |
| C[C@H](OC(=O)[C@@H]1CCCN1)[C@H](O)[C@H]1CNc2nc(N)[nH]c(=O)c2N1 [Example 9, Pyrrolidine-2-carboxylic acid 2-(2-amino-4-oxo-3,4,5,6,7,8-hexahydro-pteridin-6-yl)-2-hydroxy-1-methyl-ethyl ester dihydrochloride] | slight effect on eNOS activity | increased NO production in a dose-dependent manner | similar, if slightly reduced, effect |  |  |  |  |
| CCC(C)[C@H](N)C(=O)O[C@@H](C)[C@H](O)[C@H]1CNc2nc(N)[nH]c(=O)c2N1 (stereo in doubt) [Example 6, 2-Amino-3-methyl-pentanoic acid 2-(2-amino-4-oxo-3,4,5,6,7,8-hexahydro-pteridin-6-yl)-2-hydroxy-1-methyl-ethyl ester] |  | increased NO production in a dose-dependent manner | similar, if slightly reduced, effect |  |  |  |  |
| CCCC(=O)O[C@@H]([C@H](C)OC(=O)CCC)[C@H]1CNc2nc(N)[nH]c(=O)c2N1C(=O)CCC [Example 4, Butyric acid 1-(2-amino-5-butyryl-4-oxo-3,4,5,6,7,8-hexahydro-pteridin-6-yl)-2-butyryloxy-propyl ester] |  |  |  | high level of stability | high level of stability | high level of stability |  |
| C[C@@H](O)[C@@H](O)[C@H]1CNc2nc(N)[nH]c(=O)c2N1 [Example 6S-BH4, reference compound] | did not significantly potentiate eNOS activity |  |  |  |  |  |  |
| C[C@H](O)[C@H](O)[C@H]1CNc2nc(N)[nH]c(=O)c2N1 [BH4, Tetrahydrobiopterin, reference compound] | did potentiate eNOS activity in a dose-dependent manner |  |  |  |  |  | AUC(0-inf) [4]: 6.96 µM·h; AUC(0-t) [4]: 6.76 µM·h; Cmax [4]: 7.05 µM; Tmax [4]: 6.6 min; lowering of systolic blood pressure (SBP) ([5]; SHR, 100 mg/kg/day oral gavage, after 3 weeks, vs vehicle): about 8.4 mmHg; blood pressure of SHR ([5]; previous studies, 10, 100, and 500 mg/kg/day, two weeks of oral administration): reduced the blood pressure; bioavailability ([6]; male, cynomolgus monkey, plasma, po, 40 mg/kg, based on 6R-BH4 IV, read-out: Absolute Bioavailability, BH4): 9.8%; AUC(0-inf) [6, 7]: 13.4 µM·h; AUC(0-t) [6, 7]: 11.9 µM·h; Cmax [6, 7]: 2.33 µM; Tmax [6, 7]: 3.7 h; half-life [6, 7]: 5.9 h; Absolute Bioavailability, BH4 ([6]; based on 6R-BH4 IV, 40 mg/kg): 9.2 (4.2) % |
| CCC(=O)O[C@@H]([C@H](C)OC(=O)CC)[C@H]1CNc2nc(N)[nH]c(=O)c2N1C(=O)CC [Example 3, Propionic acid 1-(2-amino-4-oxo-5-propionyl-3,4,5,6,7,8-hexahydro-pteridin-6-yl)-2-Propionyloxy-propyl ester] |  |  |  | high level of stability | high level of stability | high level of stability |  |
| C[C@H](OC(=O)[C@@H](N)CCCCN)[C@H](O)[C@H]1CNc2nc(N)[nH]c(=O)c2N1 [Example 7, 2,6-Diamino-hexanoic acid 2-(2-amino-4-oxo-3,4,5,6,7,8-hexahydro-pteridin-6-yl)-2-hydroxy-1-methyl-ethyl ester tri-hydrochloride] | slight effect on eNOS activity | increased NO production in a dose-dependent manner | similar, if slightly reduced, effect |  |  |  |  |
| CC(=O)O[C@@H]([C@H](C)OC(C)=O)[C@H]1CNc2nc(N)[nH]c(=O)c2N1C(C)=O [Example 2, Acetic acid 2-acetoxy-1-(5-acetyl-2-amino-4-oxo-3,4,5,6,7,8-hexahydro-pteridin-6-yl)-propyl ester] |  |  |  | high level of stability | high level of stability | high level of stability |  |
